This is an account of results in patent publication US4241066A, “14-Amino derivatives of morphine, methods of making them and analgesic compositions containing them” (priority 1977, dated 1980).

Assay [1] concerns opiate receptor. The experiment in a line: in vivo agonist test in the rat, tail pressure as nociceptive stimulus (Green and Young). The following applies: administered subcutaneously. The method, then: The compounds have been screened for agonist activity in the rat using tail pressure as the nociceptive stimulus as described by Green, H. F., and Young, P. A., Br. J. Pharmac. Chemother., 6, 572 (1951) and for morphine antagonist activity in rat using a tail flick test modified from the method described for mice by Ben Bassat et al (Arch Int. Pharmacoldyn. 122, 434 [1959]). The nociceptive stimulus in this test is a hot water bath (55° C.).

The target in assay [2] is T1, opiate receptor (Rattus norvegicus, UniProt P33535).
T1 construct: from tissue; host or cells: living rat (whole animal, subcutaneous dosing)
T1 sequence (P33535 whole entry): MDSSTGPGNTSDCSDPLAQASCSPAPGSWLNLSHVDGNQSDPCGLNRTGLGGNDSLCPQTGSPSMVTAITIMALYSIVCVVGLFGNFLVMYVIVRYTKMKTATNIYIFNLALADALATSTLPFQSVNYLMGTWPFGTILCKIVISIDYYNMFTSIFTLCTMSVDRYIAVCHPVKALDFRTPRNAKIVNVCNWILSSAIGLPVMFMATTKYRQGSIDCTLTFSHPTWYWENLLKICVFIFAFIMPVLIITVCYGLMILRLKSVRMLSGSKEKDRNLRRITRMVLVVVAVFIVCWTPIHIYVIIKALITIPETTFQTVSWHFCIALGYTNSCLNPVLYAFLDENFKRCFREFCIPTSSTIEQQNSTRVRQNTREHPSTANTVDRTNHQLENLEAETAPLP
The class given is in vivo. To be noted: tail flick, hot water bath 55° C., administered subcutaneously. On the procedure:
Chemother., 6, 572 (1951) and for morphine antagonist activity in rat using a tail flick test modified from the method described for mice by Ben Bassat et al (Arch Int. Pharmacoldyn. 122, 434 [1959]). The nociceptive stimulus in this test is a hot water bath (55° C.).

For `CCCCCCN[C@@]12C=CC(=O)[C@@H]3Oc4c(OC)ccc5c4[C@@]31CCN(CC1CC1)[C@@H]2C5` [Example 38], the “ED50 (agonist, antinociceptive)” value in the assay on opiate receptor [1] amounted to 1.92 mg/kg.

For the molecule `O=C1C=C[C@@]2(NCC3CC3)[C@H]3Cc4ccc(O)c5c4[C@@]2(CCN3CC2CC2)[C@H]1O5` [Example 48], the “AD50 (morphine antagonist)” value on opiate receptor [2] worked out at 0.0027 mg/kg. The same measure, in the same setting: the result for `O=CN[C@@]12C=CC(=O)[C@@H]3Oc4c(O)ccc5c4[C@@]31CCN(CC1CC1)[C@@H]2C5` [Example 49] reads 0.132 mg/kg. For `CCCCCC(=O)N[C@@]12C=CC(=O)[C@@H]3Oc4c(O)ccc5c4[C@@]31CCN(CC1CC1)[C@@H]2C5` [Example 54], in the assay with opiate receptor [1], the “ED50 (agonist, antinociceptive)” value was determined as 0.0036 mg/kg. Same read-out and setting: the result for `CN1CC[C@]23c4c5ccc(O)c4O[C@H]2[C@@H](O)C=C[C@H]3[C@H]1C5` [morphine] reads 0.66 mg/kg.
